This note sets out measurements from patent US20260055083A1, “APOL1 INHIBITORS AND METHODS OF USE” (Maze Therapeutics, Inc., priority 2022, published 2026).

For assay [1], the target named is T1, APOL1 G2 (Homo sapiens, UniProt O14791, DEL388-389).
T1 construct: expressed in transfected cells; host or cells: HEK293/T-REx APOL1 G2 clone #2, doxycycline-inducible
T1 sequence (O14791 with tags, fused parts or gaps DEL388-389): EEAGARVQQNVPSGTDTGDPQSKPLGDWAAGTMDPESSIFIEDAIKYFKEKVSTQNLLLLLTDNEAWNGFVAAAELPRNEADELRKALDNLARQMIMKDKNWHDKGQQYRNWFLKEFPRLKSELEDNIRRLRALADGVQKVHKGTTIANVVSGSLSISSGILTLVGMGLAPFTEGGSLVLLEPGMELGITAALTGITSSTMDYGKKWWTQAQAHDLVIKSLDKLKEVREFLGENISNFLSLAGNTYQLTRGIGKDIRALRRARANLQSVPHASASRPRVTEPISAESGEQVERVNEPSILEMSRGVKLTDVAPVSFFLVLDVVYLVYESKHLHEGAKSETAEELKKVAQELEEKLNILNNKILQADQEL
Put plainly: APOL1 G2 FLIPR calcium influx assay (HEK T-REx/GCaMP6f/APOL1 G2 K6.3 cells). The assay is classed as cell-based. As to conditions: HEK293 clone expressing GCaMP6f, doxycycline-induced APOL1 G2; prevention of calcium influx; geometric mean of at least 2 assay runs. Here is the method: A HEK293 clonal cell line was generated to stably express GCaMP6f, a genetically encoded calcium indicator, and inducibly express APOL1 G2 (HEK T-REx/GCaMP6f/APOL1 G2 K6.3). Cells were maintained in the following standard complete medium: DMEM with 4.5 g/L glucose and sodium pyruvate (BioWhittaker, Lonza, BE12-614F), supplemented with 10% FBS Performance Plus (Gibco, 16000044), 1% penicillin-streptomycin (BioWhittaker, DE17-602E), 2 mM ultraglutamine-1 (BioWhittaker cat. BE 17-605/U1), 50 μg/mL Zeocin (InvivoGen, ant-zn), 2.5 μg/mL Blasticidin (InvivoGen, ant-bl-5), and 25 μg/mL Hygromycin (InvivoGen, ant-hg). Standard propagation conditions consisted of plating 9×10^6, 4×10^6, 2×10^6 cells in a T225 flasks to be processed after 2, 3, or 4 days, respectively.
A source plate was generated containing 20 serially diluted compounds in DMSO (duplicate 8-point dose response). Next, 0.8 μL of compounds were transferred from the source plate to a destination plate prefilled with 79.2 μL of Ca^2+ free Tyrode's buffer (130 mM NaCl, 5 mM KCl, 1 mM MgCl2, 5 mM NaHCO3, 20 mM HEPES at pH 7.4). The destination plate was placed on a plate shaker (5 seconds at 2000 rpm) to mix. […] All transfer and mixing steps were conducted with an CyBi®-Well dispenser.
Cells were split by gently washing with DPBS (Euroclone, ECB4004L), followed by a 5-minute incubation (humidified, 37° C. with 5% CO2) with trypsin-EDTA solution (Euroclone, ECB3052D). Detached cells were diluted with standard complete medium without selective agents, counted, and plated in a 384 MTP microplate (GR4332CPL, Twin Helix) (10,000 cells/well in 25 μl/well) using a MATRIX WellMate dispenser. Plates were placed into a humidified incubator (37° C. with 5% CO2) overnight. The following day, 20 μL of doxycycline (Sigma, D9891) at 20 ng/mL in standard complete medium was added to cells with a CyBi®Drop dispenser to induce APOL1 G2 expression. After a 6-hour incubation (humidified, 37° C. with 5% CO2), cells were washed 3 times with Ca^2+ free Tyrode's Buffer (130 mM NaCl, 5 mM KCl, 1 mM MgCl2, 5 mM NaHCO3, 20 mM HEPES at pH 7.4) using a BIOTEK Microplate washer, such that 10 μL of buffer remained in each well after the final wash. Assay plates were then stored at room temperature for 10 minutes. Next, 10 μL of diluted compounds were transferred to the assay plate from the 2× compound plate using a CyBi®-Well dispenser. Compound incubation was then carried out at room temperature for 10 minutes. The assay plate was transferred to the […] and 20 μL of 10 mM Ca^2+ (final concentration=5 mM) Tyrode's buffer was injected.
Table B1 below summarizes the data from this experiment. Unless otherwise specified, AC50 and values are reported as the geometric mean of at least 2 assay runs on separate days. Each run represents the average of a technical replicate, where each compound was assayed twice in the same plate. A superscript t symbol indicates a value from the average of a technical replicate from a single assay run, where each compound was assayed twice in the same plate.
The AC50 values in Table B1 below reflect the compound's ability to prevent calcium influx by inhibiting APOL1. […] Compounds in Table B1 are referred to by the corresponding Compound Number in Table 1, which is also referred to in the synthetic examples. When one or more of the numbered compounds are identified by stereochemistry (for example, (R)- or (S)-), the specific stereoisomer for which data is provided in Table B1 may be identified by the elution order of such compound as described in the synthetic examples. To illustrate, Compound 2 is the first-eluting enantiomer of step 4 of Example 1 and Compound 3 is the second-eluting enantiomer of step 4 of Example 1. Further, by way of illustration, Compound 27 is the first-eluting enantiomeric mixture in step 4 of Example 7 and Compound 28 is the second-eluting enantiomeric mixture in step 4 of Example 7. […]

The target in assay [2] is T1, APOL1 G2. Nature of the assay: APOL1 G2 HEK293 rescue of cell death caused by overexpression of APOL1 (CellTiter-Glo). It counts as cell-based. Particulars: HEK293/T-REx APOL1 G2 clone #2, doxycycline induction, 17 hours, CellTiter-Glo luminescence; reversal of cell death; geometric mean of at least 2 assay runs. Here is the method:
A HEK293 clonal cell line overexpressing APOL1 G2 (HEK293/T-REx APOL1 G2/clone #2) was maintained in 1×DMEM-GlutaMax (Gibco, 10569-010) media with 10% tetracycline-free FBS (Takara Bio USA, 631101), 5 μg/mL Blasticidin (Gibco, A1113903), and 100 μg/mL Zeocin (Invitrogen, R25001) in T75 flasks. In preparation for the assay, this media was aspirated and 2 mL of prewarmed TrypLE Express (Gibco, 12605-010) was added to a flask to detach cells. The flask was then incubated (humidified, 37° C. with 5% CO2) for 3-5 minutes. Afterwards, 8 mL of prewarmed cell assay media (1×DMEM-GlutaMax media with 10% tetracycline-free FBS) was added to the trypsinized cells. The suspension was gently mixed, and cells were counted using a Countess Cell Counting Chamber (Invitrogen). The suspension was diluted using cell assay media to generate a working stock solution (166,667 cells/mL). Using a MultiDrop Combi (Thermo Electron Corp), 30 μL (final cell density=5,000 cells/well) of the working stock solution was dispensed into each well of white 384-well assay ready plates (Nunc™, 164610) containing 6 ng/mL doxycycline, to induce APOL1 expression, and compound. All compounds were plated in a duplicate 8-point dilution series that consisted of 3-fold stepwise dilutions (0.5% DMSO final). Assay plates were incubated (humidified, 37° C. with 5% CO2) for 17 hours. After the incubation, the plates were equilibrated at room temperature for 1 hour. Next, 15 μl of CellTiter-Glo® reagent (Promega, G7570) was added to each well using a MultiDrop Combi. Plates were placed on an orbital shaker (500 rpm) for 5 minutes to induce cell lysis and then incubated at room temperature for 10 minutes. Luminescence was measured on an Envision plate reader. Collaborative Drug Discovery software was utilized for graphing data. Plots were generated using a four parameter logistic curve fit.
Table B2 below provides the results from this experiment. Unless otherwise specified, EC50 values are reported as the geometric mean of at least 2 assay runs on separate days. Each run represents the average of a technical replicate, where each compound was assayed twice in the same plate. A superscript t symbol indicates a value from the average of a technical replicate from a single assay run, where each compound was assayed twice in the same plate. Compounds in Table B2 are referred to by the corresponding Compound Number in Table 1, which is also referred to in the synthetic examples. When one or more of the numbered compounds are identified by stereochemistry (for example, (R)- or (S)-), the specific stereoisomer for which data is provided in Table B2 may be identified by the elution order of such compound as described in the synthetic examples. To illustrate, Compound 2 is the first-eluting enantiomer of step 4 of Example 1 and Compound 3 is the second-eluting enantiomer of step 4 of Example 1. Further, by way of illustration, Compound 27 is the first-eluting enantiomeric mixture in step 4 of Example 7 and Compound 28 is the second-eluting enantiomeric mixture in step 4 of Example 7. Then, Compound 27 is separated into Compound 29 (the first-eluting enantiomer) and Compound 30 (the second-eluting enantiomer) in Example 8, and Compound 28 is separated into Compound 31 (the first-eluting enantiomer) and Compound 32 (the second-eluting enantiomer) in Example 8. Absolute stereochemistry of such compounds may be identified by methods known in the art.
Rescue EC50 values reported in Table B2 below represent the half-maximal effective concentration for reversal of cell death caused by overexpression of APOL1.

As to `C[C@@H]1C[C@H](COc2ccc(S(C)(=O)=O)cc2)CN1C1CCc2ccc(Cl)cc2C1` (single isomer, unassigned) [Compound 6, (2R,4S)-1-[(2R or 2S)-7-chloro-1,2,3,4-tetrahydronaphthalen-2-yl]-4-[(4-methanesulfonylphenoxy)methyl]-2-methylpyrrolidine], the AC50 on APOL1 G2 [1] came out at 839 nM. In addition, the EC50 on APOL1 G2 [2] was found to be 661 nM.

As to `C[C@@H]1C[C@H](COc2ccc(S(C)(=O)=O)cc2)CN1C1CCc2c(C#N)cc(Cl)cc2C1` (single isomer, unassigned) [Compound 7, (6R or 6S)-3-chloro-6-[(2R,4S)-4-[(4-methanesulfonylphenoxy)methyl]-2-methylpyrrolidin-1-yl]-5,6,7,8-tetrahydronaphthalene-1-carbonitrile], on APOL1 G2 [1], the AC50 came out at 1540 nM. The EC50 at APOL1 G2 [2] came to 195 nM.

As for `C[C@@H]1C[C@H](COc2ccc(S(C)(=O)=O)cc2)CN1C1CCc2c(C#N)cc(Cl)cc2C1` (single isomer, unassigned) [Compound 8, (6R or 6S)-3-chloro-6-[(2R,4S)-4-[(4-methanesulfonylphenoxy)methyl]-2-methylpyrrolidin-1-yl]-5,6,7,8-tetrahydronaphthalene-1-carbonitrile], the AC50 on APOL1 G2 [1] stood at 1070 nM. The EC50 on APOL1 G2 [2] turned out to be 150 nM.

With `C[C@@H]1C[C@H](COc2ccc(S(C)(=O)=O)cc2)CN1C1CCc2c(C#N)cc(Cl)cc2C1` (single isomer, unassigned) [Compound 9, (6S or 6R)-3-chloro-6-[(2R,4S)-4-[(4-methanesulfonylphenoxy)methyl]-2-methylpyrrolidin-1-yl]-5,6,7,8-tetrahydronaphthalene-1-carbonitrile], the AC50 at APOL1 G2 [1] amounted to 1280 nM. On APOL1 G2 [2], the EC50 stood at 516 nM.

Turning to `CC(Cc1cc(Cl)cc(C#N)c1)N1C[C@@H](COc2ccc(S(C)(=O)=O)cc2)C[C@H]1C` (single isomer, unassigned) [Compound 10, 3-chloro-5-[(2S or 2R)-2-[(2R,4S)-4-[(4-methanesulfonylphenoxy)methyl]-2-methylpyrrolidin-1-yl]propyl]benzonitrile], the half-maximal activity concentration (AC50) on APOL1 G2 [1] was 1020 nM. For the same molecule, at APOL1 G2 [2], the EC50 came out at 744 nM.

In the case of `CC(Cc1cc(Cl)cc(C#N)c1)N1C[C@@H](COc2ccc(S(C)(=O)=O)cc2)C[C@H]1C` (single isomer, unassigned) [Compound 11, 3-chloro-5-[(2R or 2S)-2-[(2R,4S)-4-[(4-methanesulfonylphenoxy)methyl]-2-methylpyrrolidin-1-yl]propyl]benzonitrile], the AC50 on APOL1 G2 [1] was 1130 nM. The EC50 on APOL1 G2 [2] turned out to be 137 nM.

As to `C[C@@H]1CN(C2CCc3ccc(Cl)cc3C2)C[C@H]1COc1ccc(S(C)(=O)=O)cc1` (single isomer, unassigned) [Compound 15, (3S,4S)-1-[(2S or 2R)-7-chloro-1,2,3,4-tetrahydronaphthalen-2-yl]-3-[(4-methanesulfonylphenoxy)methyl]-4-methylpyrrolidine], the AC50 on APOL1 G2 [1] turned out to be 1750 nM. The EC50 on APOL1 G2 [2] came out at 1830 nM.

`C[C@@H]1CN(C2CCc3ccc(Cl)cc3C2)C[C@H]1COc1ccc(S(C)(=O)=O)cc1` (single isomer, unassigned) [Compound 16, (3S,4S)-1-[(2R or 2S)-7-chloro-1,2,3,4-tetrahydronaphthalen-2-yl]-3-[(4-methanesulfonylphenoxy)methyl]-4-methylpyrrolidine]: the AC50 at APOL1 G2 [1] worked out at 1080 nM. In addition, the EC50 on APOL1 G2 [2] came to 712 nM.

Regarding `CC(Cc1cc(Cl)cc(C#N)c1)N1C[C@@H](COc2ccc(S(C)(=O)=O)cc2)[C@H](C)C1` (single isomer, unassigned) [Compound 18, 3-chloro-5-[(2S or 2R)-2-[(3S,4S)-3-[(4-methanesulfonylphenoxy)methyl]-4-methylpyrrolidin-1-yl]propyl]benzonitrile], at APOL1 G2 [1], the AC50 turned out to be 412 nM. In addition, the EC50 on APOL1 G2 [2] amounted to 262 nM.

For orientation: AC50 means the concentration giving half of the maximal activity seen. A word on the EC50: it is the concentration giving half of the maximal effect.
